T1: ZNF827 ZnF4-9 deleted (Homo sapiens)
T1 chain: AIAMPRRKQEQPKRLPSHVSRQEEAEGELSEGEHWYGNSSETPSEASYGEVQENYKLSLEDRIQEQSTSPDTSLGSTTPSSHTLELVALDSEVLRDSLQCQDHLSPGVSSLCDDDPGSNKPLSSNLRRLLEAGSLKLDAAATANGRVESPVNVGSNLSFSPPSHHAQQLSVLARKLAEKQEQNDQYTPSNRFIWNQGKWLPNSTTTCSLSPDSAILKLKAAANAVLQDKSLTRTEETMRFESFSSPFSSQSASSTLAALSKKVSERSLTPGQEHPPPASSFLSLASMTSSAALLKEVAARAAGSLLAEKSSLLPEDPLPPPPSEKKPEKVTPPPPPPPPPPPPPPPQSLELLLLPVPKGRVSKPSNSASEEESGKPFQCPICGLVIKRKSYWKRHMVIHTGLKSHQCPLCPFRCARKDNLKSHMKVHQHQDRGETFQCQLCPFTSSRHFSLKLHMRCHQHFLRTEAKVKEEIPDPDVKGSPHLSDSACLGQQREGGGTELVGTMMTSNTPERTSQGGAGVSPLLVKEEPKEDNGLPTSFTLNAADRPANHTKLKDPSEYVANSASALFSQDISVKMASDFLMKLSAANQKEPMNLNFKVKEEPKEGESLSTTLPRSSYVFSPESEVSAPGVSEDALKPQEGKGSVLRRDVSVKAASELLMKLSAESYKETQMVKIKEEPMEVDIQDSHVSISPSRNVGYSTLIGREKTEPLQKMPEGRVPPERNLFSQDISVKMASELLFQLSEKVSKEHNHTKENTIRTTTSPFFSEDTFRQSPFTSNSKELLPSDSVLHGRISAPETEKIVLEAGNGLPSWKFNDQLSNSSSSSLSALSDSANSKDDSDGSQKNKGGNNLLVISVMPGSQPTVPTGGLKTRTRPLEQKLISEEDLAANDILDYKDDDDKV


Tests used:
[1] = EdU flow cytometry; type: cell-based; details: EdU pulse 1 hour
Protocol: Using EdU flow cytometry (5-ethynyl-2′-deoxyuridine) is a thymidine analogue which is incorporated into DNA during active DNA synthesis), the effects of ZNF827 depletion on cell cycle progression, especially on DNA replication, were examined.
EdU flow cytometry was performed with the Click-iT EdU flow cytometry kit (ThermoFisher Scientific) according to manufacturer's instructions. Briefly cells were pulsed with EdU for 1 hour at 37° C. and harvested by trypsinisation and centrifugation at 1000 rpm for 5 minutes. Cells were then fixed and labelled with Alex Fluor 647 with the flow cytometry kit following the manufacturer's protocol. For DNA content labelling, the fixed cells were treated with 0.5 mg of RNase (Sigma) and 25 μg of propidium iodide at 37° C. for 30 minutes. Labelled cells were analysed using the BD FACSCanto Flow Cytometer (BD Biosciences) containing lasers to excite Alexa Fluor 647 labelled EdU and propidium iodide. Between 10 000-15 000 events were collected at an approximate flow rate of 200 events/second. Data analysis was conducted using FlowJo 7.

[2] = tested on: U-2 OS cells; assay: Comet assay (tail moment); type: cell-based
Protocol: Comet assays were performed using the CometAssay® kit (Trevigen) according to the manufacturer's protocol with minor modifications. Briefly, cells were counted and resuspended in PBS. 20 μl of cells at 1×10^5/mL were combined with molten LMAgarose (Trevigen) at 37° C. The cell mixture was pipetted onto the sample area of a prewarmed slide (CometSlide™, Trevigen). Slides were cooled at 4° C. in the dark for 25 minutes, and then immersed in ice-cold lysis solution (CometAssay® kit, Trevigen) at 4° C. overnight. On the following day, slides were removed from lysis solution and gently immersed in ice-cold 1× neutral electrophoresis buffer ([…]) for 30 minutes. Slides were then electrophoresed in 1× neutral electrophoresis buffer ([…]) for 45 minutes at 1 V/cm. Following electrophoresis, slides were immersed in DNA precipitation solution (1 M ammonium acetate in 95% ethanol) for 30 minutes at room temperature. Slides were then transferred and immersed in 70% ethanol for 30 minutes at room temperature. Slides were then dried for 15 minutes at 37° C., incubated with 1 μM YOYO stain (Invitrogen) for 5 minutes, and Prolong Gold Antifade (Invitrogen) and stored at 4° C. until microscope analysis.

[3] = tested on: U-2 OS cells; assay: Topotecan dose-response of cell proliferation after siRNA transfection (IncuCyte); type: cell-based; details: topotecan 0.0039-1 μg/mL, 180 hours, compared to scrambled control
Protocol: U-2 OS cells were plated in a 96-well plate at 4000 cells per well. 24 hours following plating, cells were transfected with either scrambled or ZNF827 siRNAs (Table 2) using Lipofectamine RNAiMAX transfection reagent (ThermoFisher Scientific). 24 hours post siRNA transfection, cells were treated with topotecan at a range of concentrations including 0.0039, 0.0078, 0.0156, 0.03125, 0.0625, 0.125, 0.25, 0.5 and 1 μg/mL in triplicates. DMSO was used as untreated control. Immediately after treatment addition, cells were imaged using the IncuCyte® live cell imaging system at 2-hour intervals for 180 hours. Cell proliferation was measured by phase object confluence calculated by the IncuCyte® analysis software. For IC50s, cell proliferation data were analysed in GraphPad Prism 8 to obtain area under curve (AUC), followed by normalisation and non-linear regression using the log(inhibitor) vs. normalised response -variable slope' function.

[4] = biological target: T1, ZNF827 ZnF4-9 deleted; assay: EMSA; 0.8 mM ZnCl2, 100 mM KCl, poly(dI:dC), on ice; details: tags: HaloTag (pHTN), expressed in HEK 293T, tag removed by HaloTEV cleavage; label: 32P (gamma)
Protocol: Purified proteins were quantified using a BCA assay using the Pierce™ BCA Protein Assay Kit according to the manufacturer's instructions. Equal amounts of purified proteins were incubated in binding buffer (20 mM HEPES-KOH, pH7.9, 100 mM KCl, 0.8 mM ZnCl₂, 0.2 mM EDTA, 5% glycerol, 0.5 mM DTT and 0.5 mM PMSF) with 6.25 μg/mL poly (dI:dC) and 50 ng/μL BSA on ice for 20 minutes. ˜0.12 nM (˜2.5 fmol) γ-³²P labelled DNA oligonucleotide (see Table 3) probes were added to samples and incubated on ice for another 30 minutes. Binding reactions were loaded onto an 8% native acrylamide/bisacrylamide (19:1, Biorad) gel pre-run at 100V in 0.5× TB buffer (89 mM Tris, 89 mM boric acid) for 20 minutes. Gels were electrophoresed at 150 V for 150 minutes at 4° C., dried at 65° C. for 45 minutes, and then exposed to a Phosphor screen overnight. Gel images were obtained by scanning the screens with a Typhoon FLA9500 Imager (GE Life Sciences).

Row | Molecule | cell cycle distribution (EdU) [1] | DNA damage measured as tail moment ([2]; 72 hr siRNA knockdown alone (DMSO)) | DNA damage measured as tail moment ([2]; 72 hr siRNA knockdown in conjunction with topotecan 2 μg/mL 24 hr) | sensitivity to topotecan treatment (cell proliferation dose-response) [3] | binding result [4]
1 | siZNF827: Stealth RNAi siRNA ZNF827HSS135819 duplex oligoribonucleotides (Invitrogen), SEQ ID NO: 12 and 13 (chain 1 GGGCAGUCUUCUGGCUGAGAAAUCA; chain 2 UGAUUUCUCAGCCAGAAGACUGCCC; listed as RNA, further chemistry not given here) | conspicuous G1 arrest and a significant reduction of S phase cells | caused DNA damage measured as tail moment to a similar extent as topotecan treatment | further increased the amount of DNA damage | markedly increased sensitivity to topotecan treatment | 
2 | TTAGGGTTAGGGTTAGGG (ssDNA) [ss telomeric G rich oligo] |  |  |  |  | binds

Source: US20220305003A1, “METHODS OF TREATING CANCER WITH AN INHIBITOR OF ZNF827” (CHILDREN'S MEDICAL RESEARCH INSTITUTE, priority 2019, published 2022)
